This is an account of results in patent US20260317337A1, “HETEROCYCLIC COMPOUNDS FOR IMAGING AGGREGATED ALPHA SYNUCLEIN IN THE SYNUCLEINOPATHIES” (THE TRUSTEES OF THE UNIVERSITY OF PENNSYLVANIA, priority 2023, published 2026).

Like-named read-outs stand apart in the source and are kept apart here.

The target of one data set is α-synuclein fibrils (Homo sapiens, UniProt P37840). The data set is described as follows: Competitive radioligand binding with [^3H]BF2846 on α-synuclein fibrils. Conditions: [^3H]BF2846, α-synuclein fibrils; mean + Sd, n = 3; read-out: α-syn Ki. As to the method:
Competition binding assays were performed with [^3H]BF2846 and [^3H]PIB to measure affinity to Asyn and Aβ. […]

A further data set concerns the target aggregated tau (Homo sapiens, UniProt P10636). The data set is described as follows: Blocking of the ^3H-labelled compound with tau ligands, homogenate binding and autoradiography. Conditions: AD, CBD and PSP.
The target in a further data set is T1, alpha synuclein (Homo sapiens, UniProt P37840).
T1 construct: autoradiography
The experiment in a line: Autoradiography in postmortem brain tissue sections. The format is binding. Conditions: PD, MSA and control brain sections. As for the experimental part:
FIGS. 1A and 1C are nuclear emulsion autoradiography images of a postmortem brain samples (A—[…] PD brain; C—MSA brain) after administration of ^3H-Compound 103. FIGS. 1B and 1D are the same samples from FIGS. 1A and 1C after incubating sequentially with anti-phospho-α-syn (S129) antibody (p-syn/81A, BioLegend) and Alexa Fluor 488 goat anti-mouse secondary antibody to immunostain LBs and LNs. FIGS. 1E and 1G are nuclear emulsion autoradiography images of postmortem brain samples of (E—PD brain; G—[…] MSA brain) with ^3H-Compound 43. FIGS. 1F and 1H are the same samples from FIGS. 1E and 1G after incubating sequentially with anti-phospho-α-syn (S129) antibody (p-syn/81A, BioLegend) and Alexa Fluor 488 goat anti-mouse secondary antibody to immunostain LBs and LNs.
FIG. 3 are autoradiography images in tissue sections of ^3H-Compound 103 and ^3H-Compound 43 in PD, MSA and control brain. Neuropathological scores for Abeta, tau and Asyn are shown for each tissue section.
Kd and Bmax values of [^3H]-Compound 113 were obtained from a panel of postmortem brain samples (e.g., PD, MSA, corticobasal degeneration (CBD), progressive supranuclear palsy (PSP), Alzheimer's disease (AD)). Nuclear emulsion autoradiography identified the distribution of [^3H]-Compound 113 on PD and MSA tissues for aggregated Asyn, which was confirmed by antibody staining. […]

A short description of data set [1]: Dynamic PET imaging in non-human primate. It is filed as in vivo. As to the method: FIG. 2 are dynamic whole body PET images of ^11C-compound 103 in a non-human primate 1-90 minutes after administration ^11C-compound 103.
FIG. 6 are dynamic PET images (top) and time-activity curves for whole brain and different brain regions (bottom) of ^11C-compound 103 in a non-human primate and show the high uptake and rapid washout of [^11C]-compound 103.
FIG. 7 are dynamic PET images (top) and time-activity curves (bottom) of ^11C-compound 43 in a non-human primate and show the high uptake and rapid washout of [^11C]-compound 43.
Kd and Bmax values of [^3H]-Compound 113 were obtained from a panel of postmortem brain samples (e.g., PD, MSA, corticobasal degeneration (CBD), progressive supranuclear palsy (PSP), Alzheimer's disease (AD)). Nuclear emulsion autoradiography identified the distribution of [^3H]-Compound 113 on PD and MSA tissues for aggregated Asyn, which was confirmed by antibody staining. Dynamic whole body PET images of [^11C]-Compound 113 in non-human primate were obtained over 90 min. […] The non-human primate PET study confirmed that [^11C]-Compound 113 had good brain uptake (SUV ~1.6) and rapid washout (2:60 min ratio ~3.0).

aggregated tau, sequence (P10636 whole entry): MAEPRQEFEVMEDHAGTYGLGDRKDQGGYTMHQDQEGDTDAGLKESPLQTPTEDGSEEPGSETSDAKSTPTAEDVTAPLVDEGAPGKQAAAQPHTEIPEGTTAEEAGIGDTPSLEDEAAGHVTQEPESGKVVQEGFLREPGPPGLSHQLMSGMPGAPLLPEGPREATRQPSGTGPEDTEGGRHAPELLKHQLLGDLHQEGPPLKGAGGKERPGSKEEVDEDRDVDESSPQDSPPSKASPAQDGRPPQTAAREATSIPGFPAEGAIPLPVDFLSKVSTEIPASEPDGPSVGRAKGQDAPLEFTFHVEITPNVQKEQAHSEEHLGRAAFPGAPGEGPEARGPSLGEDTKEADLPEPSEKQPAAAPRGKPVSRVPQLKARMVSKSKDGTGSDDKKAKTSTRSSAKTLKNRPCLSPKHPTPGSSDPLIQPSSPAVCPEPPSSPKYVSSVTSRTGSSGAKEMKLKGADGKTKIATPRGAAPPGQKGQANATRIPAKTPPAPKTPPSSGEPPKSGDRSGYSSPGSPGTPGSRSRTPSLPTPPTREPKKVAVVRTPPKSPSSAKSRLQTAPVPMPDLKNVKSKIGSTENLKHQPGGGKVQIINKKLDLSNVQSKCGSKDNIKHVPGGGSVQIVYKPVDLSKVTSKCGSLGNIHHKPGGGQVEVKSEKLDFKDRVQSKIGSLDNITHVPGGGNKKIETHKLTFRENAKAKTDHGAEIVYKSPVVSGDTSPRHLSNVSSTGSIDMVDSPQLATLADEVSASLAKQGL

What is called Ki is the equilibrium dissociation constant of an inhibitor or competing ligand from its target. Regarding `COc1ccc(NC(=O)c2cnc(N3CC4CCC(C3)N4c3cnc4ccccc4c3)nc2N)cc1` [Compound 126, 4-Amino-N-(4-methoxyphenyl)-2-(8-(quinolin-3-yl)-3,8-diazabicyclo[3.2.1]octan-3-yl)pyrimidine-5-carboxamide], the Ki at α-synuclein fibrils was 522 nM.

Turning to `Nc1nc(N2CCN(c3nc4ccccc4o3)CC2)ncc1C(=O)Nc1ccc(OCCF)cc1` [Compound 133, 4-Amino-2-(4-(benzo[d]oxazol-2-yl)piperazin-1-yl)-N-(4-(2-fluoroethoxy)phenyl)pyrimidine-5-carboxamide], the Ki at α-synuclein fibrils came to 1.26 nM.

In the case of `Nc1nc(N2CCN(c3ccccn3)CC2)ncc1C(=O)Nc1ccc(OC[C@H](O)CF)cc1` [Compound 135, (S)-4-amino-N-(4-(3-fluoro-2-hydroxypropoxy)phenyl)-2-(4-(pyridin-2-yl)piperazin-1-yl)pyrimidine-5-carboxamide], the inhibitory constant (Ki) on α-synuclein fibrils is 16.9 nM.

Regarding `Nc1nc(N2CCN(c3ccccn3)CC2)ncc1C(=O)Nc1ccc(OC[C@@H](O)CF)cc1` [Compound 136, (R)-4-amino-N-(4-(3-fluoro-2-hydroxypropoxy)phenyl)-2-(4-(pyridin-2-yl)piperazin-1-yl)pyrimidine-5-carboxamide], the Ki on α-synuclein fibrils was 24.8 nM.

`Fc1cc(-c2ccc3c(n2)[nH]c2ccncc23)ccn1` [PI-2620]: the “blocking of [^3H]-Compound 113 binding by tau ligands” value on aggregated tau is listed as “could not be blocked”.

Take `CNc1ccc(/C=C/C=C/c2nc3ccc(OCC(O)CF)cc3s2)cn1` (stereo not shown) [PM-PBB3]: the “blocking of [^3H]-Compound 113 binding by tau ligands” value at aggregated tau is given as “could not be blocked”.

On to `COc1ccc(NC(=O)c2cnc(Cl)nc2)cc1` [[^3H]-Compound 43], for which the “ability to image alpha synuclein in human postmortem samples” value at alpha synuclein was “PD and not MSA and age-matched control”.

Consider `COc1ccc(C(=O)Nc2ccc(N3C4CCC3CN(c3ccccn3)C4)cc2)cc1` [[^3H]-Compound 103, 4-methoxy-N-(4-(3-(pyridin-2-yl)-3,8-diazabicyclo[3.2.1]octan-8-yl)phenyl)benzamide], for which, on alpha synuclein, the “ability to image alpha synuclein in human postmortem samples” value is “MSA and not PD and age-matched control”.

For the compound `COc1ccc(C(=O)Nc2ccc(N3C4CCC3CN(c3ccccn3)C4)cc2)cc1` [[^11C]-Compound 103, 4-methoxy-N-(4-(3-(pyridin-2-yl)-3,8-diazabicyclo[3.2.1]octan-8-yl)phenyl)benzamide], in data set [1], the “uptake (words)” value is “high brain uptake” and the “washout” value is listed as “rapid washout”. In data set [1] (listed as [^11C]-compound 103), the “uptake (words)” value is “high uptake”.

Turning to `COc1ccc(NC(=O)c2cnc(Cl)nc2)cc1` [[^11C]-compound 43], in data set [1], the “uptake (words)” value is recorded as “high uptake” and the “washout” value is “rapid washout”.
